The record followed here is PubChem BioAssay AID789 (SRMLSC, 2007).

The subject of experiment [1] is S. cerevisiae apl2Δ mutant growth inhibition. Description: growth inhibition of apl2Δ yeast, dose response, selectivity assay for post-Golgi transport modulator project, S. cerevisiae, secondary screen, background strain comparison (AID 789).
Experiment in experiment [2]: as above
To be noted: S. cerevisiae background (wild-type parent) strain growth inhibition.

The source made the active and inactive calls. How the calls were made is not given here. A value given as a limit tells only on which side of the number the result lay.

The term IC50 denotes the midpoint of a concentration-inhibition curve.

With `COc1ccc(N2CCN(c3oc(-c4ccco4)nc3C#N)CC2)cc1`, the IC50 in experiment [1] was > 10 µM (inactive); in experiment [2] it was > 10 µM.
For the compound `CCn1c(SCC(=O)N2CCCc3ccccc32)nnc1-c1ccco1`, the values for the IC50 in experiment [1] and in experiment [2] were > 10 µM (inactive) and > 10 µM, respectively.
The corresponding values for `CC(=O)c1cnc2nc(C)nn2c1C` are > 10 µM (inactive) and > 10 µM.
In the case of `O=C(NC1CCN(Cc2ccccc2)CC1)C1COc2ccccc2O1` (stereo unspecified), the IC50 is > 10 µM (inactive) in experiment [1] and > 10 µM in experiment [2].
As for `O=C(N/N=C/c1ccc(OC(=O)c2ccccc2)cc1)c1ccc(CN2CCOCC2)cc1`, the IC50 in experiment [1] is > 10 µM (inactive); in experiment [2], > 10 µM.
As to `CCOC(=O)C1CCN(Cc2cnc(Oc3ccc(Cl)cc3C)s2)CC1`, the IC50 in experiment [1] is > 10 µM (inactive); in experiment [2], > 10 µM.
In the case of `CCCOc1ccccc1N/C(=N/c1nc(C)cc(C)n1)NC(=O)COc1ccc(OC)cc1`, the IC50 in experiment [1] is > 10 µM (inactive); in experiment [2], > 10 µM.
For the compound `O=C(OCn1nnc2ccccc2c1=O)c1cn(-c2ccccc2)nc1-c1cccnc1`, the IC50 in experiment [1] was > 10 µM (inactive); in experiment [2], > 10 µM.
Consider `COc1ccc2oc(=O)c(-c3nnc(NCc4ccco4)s3)cc2c1`, for which the values for the IC50 in experiment [1] and in experiment [2] were > 10 µM (inactive) and > 10 µM, respectively.
With `O=Cc1cc2ccccc2nc1SCc1ccc(Cl)cc1`, the IC50 in experiment [1] was > 10 µM (inactive); in experiment [2], > 10 µM.
`O=C(NCC(c1cccnc1)N1CCN(c2ccccc2)CC1)c1ccc2c(c1)OCO2` (stereo unspecified): the results for the IC50 in experiment [1] and in experiment [2] were > 10 µM (inactive) and > 10 µM, respectively.
For `Cn1c2ccc(Cl)cc2c2nc3ccccc3nc21`, the IC50 is > 10 µM (inactive) in experiment [1] and > 10 µM in experiment [2].
As for `CCc1cc2c(=O)c(Oc3ccccc3F)c(C)oc2c(CN(C)C)c1O`, the IC50 in experiment [1] was > 10 µM (inactive); in experiment [2], > 10 µM.
Consider `CC(=O)NC1C(c2nc3ccccc3s2)=C(c2ccccc2)C(=O)N1c1ccc(C)cc1` (stereo unspecified), for which the IC50 in experiment [1] is 2.89 µM (inactive); in experiment [2], 1.92 µM.
Take `Cc1ccc(S(=O)(=O)N2CCN(C3CCN(Cc4ccccc4)CC3)CC2)cc1`: the IC50 is > 10 µM (inactive) in experiment [1] and > 10 µM in experiment [2].
On the same counts, the results for `CCCCS(=O)(=O)/C=C\C=C/S(=O)(=O)CCCC` are 19.8 µM (inactive) and 13.9 µM.
The corresponding values for `Cc1ccc(SC(=O)COc2ccc(C)c(C)c2)cc1` are > 10 µM (inactive) and > 10 µM.
`O=C(NCc1ccccc1)NS(=O)(=O)c1ccccc1Cl`: the IC50 in experiment [1] was > 10 µM (inactive); in experiment [2], > 10 µM.
Regarding `Cc1ccc(S(=O)(=O)N2CC3CC(C2)c2cccc(=O)n2C3)cc1` (stereo unspecified), the IC50 in experiment [1] was > 10 µM (inactive); in experiment [2], > 10 µM.
For `COc1ccc(C2CC(=O)C3=C(C2)NC(C)=C(C(=O)Nc2ccccc2C)C3c2coc3ccc(C)cc3c2=O)cc1OC` (stereo unspecified), the IC50 is > 10 µM (inactive) in experiment [1] and > 10 µM in experiment [2].
`Cc1cc(O)c(/C=N/Nc2ccc(Cl)cc2)c(=O)o1`: the IC50 is 9.39 µM (inactive) in experiment [1] and 4.69 µM in experiment [2].
With `CCOC(=O)N1CCN(c2ccc(S(=O)(=O)N(Cc3ccccc3)Cc3ccccc3)cn2)CC1`, the IC50 in experiment [1] is > 10 µM (inactive); in experiment [2], > 10 µM.
Take `Cc1nn(-c2ccccn2)c(C)c1Oc1ccccc1O`: the values for the IC50 in experiment [1] and in experiment [2] were > 10 µM (inactive) and > 10 µM, respectively.
The corresponding values for `O=C(NC(C(=O)c1ccccc1)N1CCCCC1)c1ccccc1` (stereo unspecified) are > 10 µM (inactive) and > 10 µM.
For the compound `COc1cccc(NC(=O)c2ccc(CN3CCN(c4ccccc4)CC3)cc2)c1`, the values for the IC50 in experiment [1] and in experiment [2] were > 10 µM (inactive) and > 10 µM, respectively.
On to `CCOCCCNC(=O)c1cc2sc(Cl)cc2n1CC`, for which the results for the IC50 in experiment [1] and in experiment [2] were > 10 µM (inactive) and > 10 µM, respectively.
As for `CCN1C(=O)c2ccc(C(=O)NCc3ccccc3)cc2C1=O`, the IC50 is > 10 µM (inactive) in experiment [1] and > 10 µM in experiment [2].
As for `COc1ccc(C(=O)Nc2ccc(Cl)cc2C(=O)N2CCCC(C)C2)cc1` (stereo unspecified), the results for the IC50 in experiment [1] and in experiment [2] were 22.4 µM and > 10 µM, respectively.
In the case of `O=C(c1ccco1)N1CCN=C1SCc1cccnc1`, the figures for the IC50 in experiment [1] and in experiment [2] were > 10 µM (inactive) and > 10 µM, respectively.
`Cc1ccc(C)c(NS(=O)(=O)c2cc(C(=O)N3CCc4ccccc4C3)ccc2Cl)c1`: the figures for the IC50 in experiment [1] and in experiment [2] were 5.74 µM and 6.88 µM, respectively.
In the case of `Cc1ccc(/C=N/n2cnc3sc(-c4ccccc4)cc3c2=O)o1`, the figures for the IC50 in experiment [1] and in experiment [2] were > 10 µM (inactive) and > 10 µM, respectively.
Regarding `O=S(=O)(c1ccc(Cl)cc1)N1CCN(C2CCN(Cc3ccccc3)CC2)CC1`, the values for the IC50 in experiment [1] and in experiment [2] were > 10 µM (inactive) and > 10 µM, respectively.
In the case of `CCOC(=O)c1c(CN2CCCCC2C)oc2ccc(OC)cc12` (stereo unspecified), the IC50 in experiment [1] is > 10 µM (inactive); in experiment [2] it was > 10 µM.
Take `Cn1c(=O)c2nc(NCc3ccccc3)cnc2n(C)c1=O`: the IC50 in experiment [1] was > 10 µM (inactive); in experiment [2], > 10 µM.
Consider `Cc1ccn2cc(-c3nonc3C)cc2c1`, for which the IC50 is > 10 µM (inactive) in experiment [1] and > 10 µM in experiment [2].
With `CCCCCOc1ccc(Cl)cc1CN1CCOCC1`, the IC50 in experiment [1] was > 10 µM (inactive); in experiment [2], > 10 µM.
As for `CCC(OC(=O)C(NC(=O)c1ccccc1)c1ccccc1)C(=O)Nc1cc(C)on1` (stereo unspecified), the figures for the IC50 in experiment [1] and in experiment [2] were > 10 µM (inactive) and > 10 µM, respectively.
Consider `CCOC(=O)C1=C(CSc2nc(-c3ccccc3)ccc2C#N)OC(N)=C(C#N)C1c1cccnc1` (stereo unspecified), for which the results for the IC50 in experiment [1] and in experiment [2] were > 10 µM (inactive) and > 10 µM, respectively.
Turning to `CCOC(=O)Cc1c(C)c2ccc(N(CC)CC)cc2oc1=O`, the IC50 in experiment [1] is > 10 µM (inactive); in experiment [2], > 10 µM.
Take `NC(=O)c1ccsc1NC(=O)c1nc(-c2ccccc2)n(-c2ccccc2)n1`: the IC50 is > 10 µM (inactive) in experiment [1] and > 10 µM in experiment [2].
Consider `COc1ccc(-c2nnc(CSc3nc4ccccc4c(=O)n3C)o2)cc1OC`, for which the IC50 in experiment [1] was > 10 µM (inactive); in experiment [2], > 10 µM.
The corresponding values for `CCCCSCCCNC(=O)Nc1cccc(OC)c1` are > 10 µM (inactive) and > 10 µM.
`Cc1cccc2cc(C#N)c(NCCCn3ccnc3)nc12`: the values for the IC50 in experiment [1] and in experiment [2] were > 10 µM (inactive) and > 10 µM, respectively.
With `NC(=O)c1c(NC(=O)CN2C(=O)CCC2=O)sc2c1CCCCC2`, the figures for the IC50 in experiment [1] and in experiment [2] were > 10 µM (inactive) and > 10 µM, respectively.
For `O=c1cccc2n1CC1CC2CN(S(=O)(=O)c2ccccc2)C1` (stereo unspecified), the IC50 was > 10 µM (inactive) in experiment [1] and > 10 µM in experiment [2].
On the same counts, the results for `COc1ccc(NC(=O)N(C2CCCCC2)C(C)c2cccnc2)c(OC)c1` (stereo unspecified) are 12.6 µM and 16.7 µM.
For `COc1ccc(NC(=S)NC(NC(=O)c2ccc(Cl)cc2Cl)C(Cl)(Cl)Cl)c([N+](=O)[O-])c1` (stereo unspecified), the IC50 in experiment [1] was > 10 µM (inactive); in experiment [2], > 10 µM.
With `COc1cccc(-c2cc(C(=O)N3CCN(C(c4ccccc4)c4ccccc4)CC3)no2)c1`, the IC50 in experiment [1] was > 10 µM (inactive); in experiment [2], > 10 µM.
